This note sets out measurements from patent publication EP4632836A1, “BATTERIES FOR OPERATION ACROSS TEMPERATURES AND RELATED METHODS” (Massachusetts Institute of Technology, priority 2024, dated 2025).

This data set in a line: Electrode soaking test in electrolyte (coloration of electrolyte). Type of data set: physicochemical. Particulars: electrodes with 90 wt.% of TAQ soaked in 2 mL of 1 M LiTFSI in DOL/DME (1/1 vol.%), -20 °C to 70 °C, 24 hours; no coloration of electrolyte. The text has this:
The high-temperature performance of organic cathode materials for LIBs depends on the solubility of the active materials in organic electrolytes as dissolution leads to rapid capacity decay, dramatically reducing the cycling lifetime. On the other hand, the performance of LIBs at low temperatures is heavily dependent on the charge transport and transfer resistance, as well as the solid-state Li^+ diffusion resistance of the electrode. The solubility of TAQ electrodes and deeply lithiated TAQ (Lix-TAQ, 3<x<4) electrodes in a commercially available electrolyte (1 M LiTFSI in DOL/DME (1/1 vol.%)) under various temperatures was evaluated (FIGS. 24C and 31). […] The electrodes were soaked in 2 mL of electrolyte, and kept under various temperatures ranging from -20 °C to 70 °C for 24 hours. […] This insolubility stems from strong intermolecular hydrogen bonding between TAQ molecules and interlayer π- π stacking, which both persist even upon deep lithiation.

On to `Nc1c(N)c(=O)c2[nH]c3c(=O)c(N)c(N)c(=O)c3[nH]c2c1=O` [TAQ, bis-tetraaminobenzoquinone], for which the solubility of electrodes entry was “complete insolubility”.
